SMILES strings stand for the structures.

A short description of data set [1]: RO membrane compatibility soak, overall conclusion. To be noted: 300 ppm, simulated 1 year.
Data set [2] in a line: RO membrane compatibility soak, clean water flux and salt rejection. Particulars: Koch HRX; 57 ppm, simulated 3 Years, soak 234 hr, 77 F. As to the method:
In particular, the effects of PFA on reverse osmosis members which contain a polyamide structure in comparison with known control chemicals was tested. Three different membranes were tested including Koch HRX, Hydranautics CPAS and Hydranautics ESPA2+. Membranes were soaked in duplicate, in chemistries according to Table 4.
Membranes were then conditioned in Ultrasil 110 at a pH of 11 for 90 minutes at 50° C., followed by a rinse in DI water.
Each of the chemistries, with the exception of PFA was refreshed daily. PFA was refreshed hourly. After the simulated exposure the membranes are rinsed with DI water and placed on the Flat Sheet Membrane skid (Model M20). The membranes were rinsed with DI water for 24 hours at standard UF pressure and temperature. Once 24 hours was completed the membranes were subjected to alkaline conditioning step until solution pH is 11. 15.14 grams of NaCl was added to the recirculating water (2000 ppm NaCl) and the system was allowed to continue circulating. The conductivity of each permeate tube and feed was then measured and recorded and shown as percent rejection. The percent rejection was determined by (conductivity of the feed−conductivity of the permeate)/(conductivity of the feed).

Take `O=COO` [PFA, peroxyformic acid]: the “flux and salt rejection results versus control (in words)” value in data set [1] is listed as “comparable results to that of the commercially-available control peroxyacetic acid compositions at 3 years”.

`CC(=O)OO` [Peracetic acid]: the “Water Flux (LMH) Peracetic acid” value in data set [2] was 75.22 LMH.

These data come from US12296365B2, “Peroxyformic acid compositions for membrane filtration cleaning” (ECOLAB USA INC., priority 2015, dated 2025).
